Laboratory results taken from article PMC8647500 (Molecular Brain, 2021).
Structures can show the parent of a compound that is named as a salt. Blank lines part the entries; values can stand above or below the compound they belong to.

Legend:
[1] = tested on: GRABNE1m; experiment: Dual-color time-lapse imaging in HeLa cells co-expressing DA1.2 and NE1m, green channel; type: cell-based; conditions: for NE1m fluorescence response to ligand: NE 1 µM then DA 5 µM
Experimental: (§1) Stock solutions for the compounds were dissolved in the appropriate vehicle, and a volume from 0.95 to 1 µl was prepared in each 1.5-ml microcentrifuge tube. Compounds were mixed with 0.5 ml imaging buffer from the well and applied to the same well at each time point during imaging (Additional file 1: Fig. S4b). For temperature equilibration of the imaging buffer, 0.5 ml of the imaging buffer was transferred from the well into an empty 1.5-ml microcentrifuge tube and then applied to the buffer in the same well; this procedure repeated 5 times (Additional file 1: Fig. S4c). The procedure for the compound application in the time-lapse imaging is shown in Additional file 1: Fig. S5. The ‘ligand’ dissolved in the appropriate vehicle was applied at the imaging time point shown by the arrow; the ‘vehicle’ was applied at the same time point.
We used Fiji, a distribution of ImageJ [44], for the preparation of quantification and measurement of all imaging files. Principally, for all images, the background was subtracted, and images were registered by StackReg (http://bigwww.epfl.ch/thevenaz/stackreg/), a Fiji plugin to correct misregistration, if required. Note that the median filter was used for the time-lapse images of the neuron before registration to remove camera noise preventing registration. Then, regions of interests (ROIs) were selected for the first time point in time-lapse imaging or in the images before the compound application, to surround the whole cell body for HeLa cells and a dendrite near the cell body for hippocampal neurons. […] In order to normalize the fluorescence changes with the amount of biosensor expression, ΔF/F0 was calculated using the intensity before the compound application. For the time-lapse experiments, the value used for F0 was the mean intensity before compound application. The image of fluorescence change (ΔF/F0) was represented as the pseudocolor intensity-modulated display mode, where color represents the relative ratio value, whilst the brightness of the color represented the fluorescence intensity of the source images. […]

[2] = molecular target: T1, R-GenGAR-DA1.2 (Homo sapiens, UniProt P21728); experiment: Dual-color time-lapse imaging in HeLa cells co-expressing DA1.2 and NE1m, red channel; type: cell-based
Experimental: as §1
(§2) We used Fiji, a distribution of ImageJ [44], for the preparation of quantification and measurement of all imaging files. […] In order to normalize the fluorescence changes with the amount of biosensor expression, ΔF/F0 was calculated using the intensity before the compound application. […] The image of fluorescence change (ΔF/F0) was represented as the pseudocolor intensity-modulated display mode, where color represents the relative ratio value, whilst the brightness of the color represented the fluorescence intensity of the source images. […]

[3] = molecular target: T1, R-GenGAR-DA1.2; experiment: Dual-color time-lapse imaging in rat primary hippocampal neurons co-expressing DA1.2 and NE1m, red channel; type: cell-based
Experimental: (§3) Primary cultures of rat hippocampal neurons were prepared similarly to that described previously. Female pregnant Wistar/ST rats (total 8 rats) arrived from Japan SLC on the day of the experiment. A pregnant rat with embryonic rats (embryonic days 19) was killed by CO2 inhalation and then embryos (10 embryos per pregnant rat) were removed and decapitated. […] To dissociate hippocampal neurons, hippocampi were treated with 10 units/ml papain (LS003126, Worthington Biochemical) for 10 min at 37 °C. […] Half of the medium was removed and replaced with fresh medium every 7 days.
(§4) Stock solutions for the compounds were dissolved in the appropriate vehicle, and a volume from 0.95 to 1 µl was prepared in each 1.5-ml microcentrifuge tube. […]
as §2

[4] = tested on: GRABNE1m; experiment: Dual-color time-lapse imaging in rat primary hippocampal neurons co-expressing DA1.2 and NE1m, green channel; type: cell-based
Experimental: as §3, §4, §2

[5] = molecular target: T1, R-GenGAR-DA1.2; conditions: rat primary hippocampal neurons
[6] = molecular target: T1, R-GenGAR-DA1.2; conditions: HeLa cells, all compounds 10 µM

T1 sequence (P21728 with tags, fused parts or gaps): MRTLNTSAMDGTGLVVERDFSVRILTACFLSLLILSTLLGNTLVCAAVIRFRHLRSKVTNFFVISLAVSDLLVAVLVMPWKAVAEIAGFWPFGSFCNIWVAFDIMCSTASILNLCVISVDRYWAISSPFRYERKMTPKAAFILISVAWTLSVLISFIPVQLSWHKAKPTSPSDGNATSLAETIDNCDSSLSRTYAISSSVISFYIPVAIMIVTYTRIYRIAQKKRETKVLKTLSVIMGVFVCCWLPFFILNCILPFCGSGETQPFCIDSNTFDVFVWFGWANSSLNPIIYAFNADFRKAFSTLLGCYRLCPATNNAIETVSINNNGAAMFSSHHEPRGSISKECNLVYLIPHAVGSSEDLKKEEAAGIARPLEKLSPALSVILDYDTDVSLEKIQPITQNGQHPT
T1 sequence (Q9U6Y8 with tags, fused parts or gaps partner): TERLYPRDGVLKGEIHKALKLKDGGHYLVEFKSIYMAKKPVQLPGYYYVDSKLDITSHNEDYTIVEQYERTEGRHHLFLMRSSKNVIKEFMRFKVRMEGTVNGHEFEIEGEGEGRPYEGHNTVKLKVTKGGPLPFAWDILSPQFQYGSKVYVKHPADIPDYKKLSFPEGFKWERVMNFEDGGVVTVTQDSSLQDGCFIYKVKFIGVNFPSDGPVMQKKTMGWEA

Compound: NCCc1ccc(O)c(O)c1 [DA, Dopamine]
- NE1m fluorescence response to ligand [1]: not DA

Compound: NC[C@H](O)c1ccc(O)c(O)c1 [NE, L-noradrenaline bitartrate monohydrate]
- DA1.2 fluorescence response to ligand ([2]; NE 1 µM then DA 5 µM): not to NE
- DA1.2 fluorescence response to ligand ([3]; NE 1 µM then DA 5 µM): not NE
- NE1m fluorescence response to ligand [1]: increase in green fluorescence
- NE1m fluorescence response to ligand ([4]; NE 1 µM): increase in NE1m green fluorescence

- effect of antagonist on DA1.2 response to DA ([2]; SCH 5 µM): blocked
- effect of antagonist applied after DA on DA1.2 fluorescence ([5]; SCH 5 µM after DA 5 µM): restored to baseline
- effect of antagonist pretreatment on response of DA1.2 to DA ([5]; SCH before DA): completely suppressed
- effect of antagonist on the response of DA1.2 to DA [6]: blocked
- effect of antagonist on DA1.2 response to DA ([3]; SCH 5 µM): restored
Compound: CN1CCc2cc(Cl)c(O)cc2[C@@H](c2ccccc2)C1 [SCH, R( +)-SCH 23390 hydrochloride]

Compound: COC(=O)[C@@H]1[C@H]2C[C@H]3c4[nH]c5ccccc5c4CCN3C[C@@H]2CC[C@@H]1O [YO, yohimbine hydrochloride]
- effect of antagonist on NE1m fluorescence response ([1]; YO 1 µM): recovered to its basal level
- effect of antagonist on NE1m fluorescence response ([4]; YO 1 µM): blocked
